ChEMBL document CHEMBL4354830, “Discovery of Benzo[cd]indol-2(1H)-ones and Pyrrolo[4,3,2-de]quinolin-2(1H)-ones as Bromodomain and Extra-Terminal Domain (BET) Inhibitors with Selectivity for the First Bromodomain with Potential High Efficiency against Acute Gouty Arthritis” (J Med Chem, 2019)
Active and inactive are the calls of the source. No cut-off for these calls is given here.

How the values were obtained:
[1] = target: T1, Bromodomain-containing protein 4 (Homo sapiens, UniProt O60885); experiment: Inhibition of BRD4 BD1 in human THP1 cells assessed as inhibition of MSU-induced pyroptosis by measuring caspase+/PI- cells at 1 uM incubated for 1 hr followed by MSU treatment and measured after 12 hrs by PI/caspase 1 double staining based flow cytometric analysis (reference value: 4.2 %); type: cell-based; parameters: scale not given: the % may be the effect or the level left
[2] = system: RAW264.7; experiment: Inhibition of LPS-induced NO overproduction in mouse RAW264.7 cells at 1 uM incubated for 2 hrs followed by LPS stimulation and measured after 22 hrs by Griess reagent based assay relative to control; type: functional; settings: Mus musculus, RAW264.7
[3] = Metabolic stability in monkey assessed as intrinsic hepatic clearance by LC/MS-MS analysis; type: ADME, Macaca mulatta; settings: rhesus monkey; read-out: CLH
[4] = target: T1, Bromodomain-containing protein 4; experiment: Inhibition of BRD4 BD1 in human THP1 cells assessed as inhibition of MSU-induced NF-kappaB P65 phosphorylation at 1 uM incubated for 1 hr followed by MSU treatment and measured after 12 hrs by Western blot analysis; type: cell-based
[5] = species on record: Homo sapiens; experiment: Selectivity index, ratio of IC50 for BRD3 BD1 (unknown origin) to IC50 for recombinant human N-terminal His-tagged BRD4 BD1 (44 to 170 residues) expressed in Escherichia coli by AlphaScreen assay
[6] = target: T1, Bromodomain-containing protein 4; experiment: Inhibition of BRD4 BD1 in human THP1 cells assessed as inhibition of MSU-induced pyroptosis by measuring caspase-/PI+ cells at 1 uM incubated for 1 hr followed by MSU treatment and measured after 12 hrs by PI/caspase 1 double staining based flow cytometric analysis (reference value: 6.8 %); type: cell-based; parameters: scale not given: the % may be the effect or the level left
[7] = target: T1, Bromodomain-containing protein 4; experiment: Inhibition of BRD4 BD1 in human THP1 cells assessed as Inhibition of MSU-induced IL-1beta secretion at 1 uM incubated for 1 hr followed by MSU treatment and measured after 12 hrs by ELISA; type: cell-based
[8] = target: Bromodomain-containing protein 3 (Homo sapiens, UniProt Q15059); experiment: Displacement of tetra-acetylated histone H4 peptide (1-21) from BRD3 BD1 (unknown origin) incubated for 30 mins followed by further incubation with tetra-acetylated histone H4 peptide (1-21) for 30 mins by Alphascreen assay
Chain of Bromodomain-containing protein 3 (Q15059 whole entry): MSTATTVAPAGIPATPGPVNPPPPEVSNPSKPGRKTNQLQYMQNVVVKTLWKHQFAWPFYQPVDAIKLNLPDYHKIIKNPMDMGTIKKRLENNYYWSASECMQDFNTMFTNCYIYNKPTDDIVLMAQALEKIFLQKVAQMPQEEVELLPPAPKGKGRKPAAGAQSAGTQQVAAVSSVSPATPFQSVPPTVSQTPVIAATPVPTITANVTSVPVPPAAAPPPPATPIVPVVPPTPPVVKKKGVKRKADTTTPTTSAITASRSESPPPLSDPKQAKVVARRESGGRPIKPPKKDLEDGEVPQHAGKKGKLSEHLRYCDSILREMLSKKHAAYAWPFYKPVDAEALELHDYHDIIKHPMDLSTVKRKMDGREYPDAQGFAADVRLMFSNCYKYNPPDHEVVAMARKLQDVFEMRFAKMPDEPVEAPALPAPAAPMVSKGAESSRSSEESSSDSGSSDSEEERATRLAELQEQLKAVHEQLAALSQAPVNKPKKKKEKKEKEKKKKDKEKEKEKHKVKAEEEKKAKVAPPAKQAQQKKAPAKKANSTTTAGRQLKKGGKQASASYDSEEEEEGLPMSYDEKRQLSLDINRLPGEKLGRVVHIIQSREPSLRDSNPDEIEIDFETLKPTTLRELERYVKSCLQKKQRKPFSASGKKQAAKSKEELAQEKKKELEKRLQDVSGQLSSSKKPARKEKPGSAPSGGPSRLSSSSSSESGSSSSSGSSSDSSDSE

[9] = system: Rattus norvegicus; experiment: (§1) In vivo inhibition of MSU-induced pyroptosis in Sprague-Dawley rat model of acute gout arthritis assessed as caspase-/PI+ macrophage cells in synovial tissue at 1 mg/kg, ia administered 1 hr before MSU challenge and measured upto 24 hrs by PI staining based flow cytometric analysis (reference value: 8.71 %); type: functional; parameters: scale not given: the % may be the effect or the level left
[10] = Metabolic stability in human assessed as intrinsic hepatic clearance by LC/MS-MS analysis; type: ADME; settings: read-out: CLH
[11] = Metabolic stability in rat liver microsomes assessed as half life measured upto 60 mins by LC/MS-MS analysis; type: ADME, Microsome
[12] = target: T1, Bromodomain-containing protein 4; experiment: Binding affinity to immobilized DNA-tagged human BRD4 BD1 by BROMOscan analysis
[13] = species on record: Homo sapiens; experiment: Selectivity index, ratio of IC50 for BRD2 BD2 (unknown origin) to IC50 for recombinant human N-terminal His-tagged BRD4 BD1 (44 to 170 residues) expressed in Escherichia coli by AlphaScreen assay
[14] = system: Rattus norvegicus; experiment: as §1, with “caspase+/PI-” for “caspase-/PI+”, “21.9” for “8.71”; type: functional; parameters: scale not given: the % may be the effect or the level left
[15] = system: Rattus norvegicus; experiment: Anti-arthritic activity in Sprague-Dawley rat model of acute gout arthritis assessed as reduction in MSU-induced IL-1beta level in synovial tissue at 1 mg/kg, ia administered 1 hr before MSU challenge and measured upto 24 hrs by ELISA; type: functional, organism-based
[16] = system: Rattus norvegicus; experiment: as §1, with “caspase+/PI+” for “caspase-/PI+”, “5.79” for “8.71”; type: functional; parameters: scale not given: the % may be the effect or the level left
[17] = target: T1, Bromodomain-containing protein 4; experiment: Inhibition of BRD4 BD1 in human THP1 cells assessed as inhibition of MSU-induced NLRP3 inflammasome at 1 uM incubated for 1 hr followed by MSU treatment and measured after 12 hrs by immunofluorescence based confocal microscopy analysis; type: cell-based
[18] = Metabolic stability in dog assessed as intrinsic hepatic clearance by LC/MS-MS analysis; type: ADME, Canis lupus familiaris; settings: read-out: CLH
[19] = target: T1, Bromodomain-containing protein 4; experiment: Inhibition of BRD4 BD1 in human THP1 cells assessed as inhibition of MSU-induced NLRP3 inflammasome at 1 uM incubated for 1 hr followed by MSU treatment and measured after 12 hrs by Western blot analysis; type: cell-based
[20] = target: T1, Bromodomain-containing protein 4; experiment: Inhibition of BRD4 BD1 in human THP1 cells assessed as inhibition of MSU-induced co-localization of NLRP3 and ASC at 1 uM incubated for 1 hr followed by MSU treatment and measured after 12 hrs by immunofluorescence based confocal microscopy analysis; type: cell-based
[21] = system: Rattus norvegicus; experiment: as §1, with “caspase-/PI-” for “caspase-/PI+”, “63.6” for “8.71”; type: functional; parameters: scale not given: the % may be the effect or the level left
[22] = system: Rattus norvegicus; experiment: In vivo inhibition of MSU-induced BRD4 expression in synovial tissue of Sprague-Dawley rat model of acute gout arthritis at 1 mg/kg, ia administered 1 hr before MSU challenge and measured upto 24 hrs by Western blot analysis; type: functional, organism-based
[23] = species on record: Homo sapiens; experiment: Selectivity index, ratio of IC50 BRD2 BD1 (unknown origin) to IC50 for recombinant human N-terminal His-tagged BRD4 BD1 (44 to 170 residues) expressed in Escherichia coli by AlphaScreen assay
[24] = system: Rattus norvegicus; experiment: In vivo inhibition of MSU-induced NLRP3 inflammasome in synovial tissue of Sprague-Dawley rat model of acute gout arthritis at 1 mg/kg, ia administered 1 hr before MSU challenge and measured upto 24 hrs by Western blot analysis; type: functional, organism-based
[25] = species on record: Homo sapiens; experiment: Selectivity index, ratio of IC50 for BRD3 BD2 (unknown origin) […] (unknown origin) by AlphaScreen assay
[26] = species on record: Homo sapiens; experiment: Selectivity index, ratio of IC50 for BRDT BD1 (unknown origin) to IC50 for recombinant human N-terminal His-tagged BRD4 BD1 (44 to 170 residues) expressed in Escherichia coli by AlphaScreen assay
[27] = target: T1, Bromodomain-containing protein 4; experiment: Displacement of tetra-acetylated histone H4 peptide (1-21) from recombinant human N-terminal His-tagged BRD4 BD1 (44 to 170 residues) expressed in Escherichia coli incubated for 30 mins followed by further incubation with tetra-acetylated histone H4 peptide (1-21) for 30 mins by Alphascreen assay
[28] = Metabolic stability in monkey liver microsomes assessed as intrinsic clearance per mg protein measured upto 60 mins by LC/MS-MS analysis; type: ADME, Macaca mulatta, Microsome; settings: rhesus monkey, read-out: CLH
[29] = target: T1, Bromodomain-containing protein 4; experiment: Displacement of tetra-acetylated histone H4 peptide (1-21) from recombinant human N-terminal His-tagged BRD4 BD2 (349 to 460 residues) expressed in Escherichia coli incubated for 30 mins followed by further incubation with tetra-acetylated histone H4 peptide (1-21) for 30 mins by Alphascreen assay
[30] = system: Rattus norvegicus; experiment: In vivo inhibition of MSU-induced NLRP3 and ASC co-localization in synovial tissue of Sprague-Dawley rat model of acute gout arthritis at 1 mg/kg, ia administered 1 hr before MSU challenge and measured upto 24 hrs by immunofluorescence based confocal microscopy analysis; type: functional, organism-based

- Activity [1]: 4.1%
- CLint scaled [3]: 11.7 L/h/kg
- inhibition [4]: Active
- Ratio IC50 [5]: 2.8
- Activity [6]: 4.9%
- inhibition [7]: Active
- IC50 [8]: 0.246 µM
- CLint scaled [10]: 5.3 L/h/kg
- half-life [11]: 9.45 min
- Kd [12]: 0.105 µM
- Ratio IC50 [13]: 244
- inhibition [17]: Active
- CLint scaled [18]: 11.5 L/h/kg
- inhibition [19]: Active
- inhibition [20]: Active
- Ratio IC50 [23]: 102
- Ratio IC50 [25]: 202
- Ratio IC50 [26]: 4.1
- IC50 [27]: 0.0877 µM
- microsomal CLint [28]: 135 µL/min/mg
- IC50 [29]: 12.1 µM
SMILES: COc1ccccc1S(=O)(=O)Nc1ccc2c3c(cc(-n4cnc(C)c4)nc13)C(=O)N2C
- inhibition at 1 µM [2]: 102%
- Activity [9]: 15.4%
- Activity [14]: 0.43%
- inhibition [15]: Active
- Activity [16]: 1.03%
- Activity [21]: 83.1%
- inhibition [22]: Active
- inhibition [24]: Active
- inhibition [30]: Active
